Experimental data as given in patent publication US9849130B2 (KamTek, Inc., priority 2014, dated 2017).
Converted amounts (≈) assume the structure as drawn. Where two headings read alike, the source gives them in different places.

Assays:
[1] = system: Clostridium difficile (CD) strains; assay: microbe, parasite or virus in culture; type: cell-based
Bifidobacterium strains = assay: MIC by microdilution in BHI broth against Bifidobacterium strains; type: cell-based, Bifidobacterium spp.; details: Bifidobacterium
Escherichia coli strains = assay: MIC by microdilution in Mueller-Hinton broth against Escherichia coli strains; type: cell-based
[2] = system: Staphylococcus aureus strains; assay: MIC by microdilution in Mueller-Hinton broth against Staphylococcus aureus strains; type: cell-based; details: Staphylococcus aureus
Fusobacterium = assay: MIC by microdilution in Brucella broth against Fusobacterium; type: cell-based, Fusobacterium spp.
CD strains = assay: In vitro activity of CFM + additional antimicrobial agent against CD (MIC alone/combination, FIC, ΣFIC); type: cell-based, Clostridium difficile; details: CFM + VAN; for MIC: Clostridioides difficile
[3] = system: Lachnospiraceae and related bacterial strains; assay: MIC against Lachnospiraceae and related bacterial strains; type: cell-based, Lachnospiraceae spp.
C. difficile VPI10463 = details: Clostridioides difficile, C. difficile VPI10463
C. perfringens MH310 = assay: microbe, parasite or virus in culture; type: cell-based
Enterococci faecium = assay: MIC by microdilution in Mueller-Hinton broth against Enterococci faecium strains; type: cell-based, Enterococcus faecium
Enterococcus faecalis = assay: MIC by microdilution in Mueller-Hinton broth against Enterococcus faecalis strains; type: cell-based; details: Enterococcus faecalis
[4] = Test 13, CD strain BAA1805 (BI/NAP1/027)
[5] = Test 16, CD strain BAA1805 (BI/NAP1/027)

## CN[C@H](CC(C)C)C(=O)N[C@H]1C(=O)N[C@@H](CC(N)=O)C(=O)N[C@H]2C(=O)N[C@H]3C(=O)N[C@H](C(=O)N[C@H](C(=O)O)c4cc(O)cc(O)c4-c4cc3ccc4O)[C@H](O)c3ccc(c(Cl)c3)Oc3cc2cc(c3O[C@@H]2O[C@H](CO)[C@@H](O)[C@H](O)[C@H]2O[C@H]2C[C@](C)(N)[C@H](O)[C@H](C)O2)Oc2ccc(cc2Cl)[C@H]1O [VAN, vancomycin]
[1]
  MIC Range: 0.25 to 2.0 µg/mL
[1]; Clostridioides difficile
  MIC50: 0.5 µg/mL (≈ 0.345 µM)
  MIC90: 2 µg/mL (≈ 1.38 µM)
[1]; Clostridioides difficile, BAA1805
  MIC: 1 µg/mL (≈ 0.69 µM)
Bifidobacterium strains
  MIC: 0.25 µg/mL (≈ 0.173 µM)
Escherichia coli strains; E. coli NR 6, Mueller-Hinton broth
  MIC: >32 µg/mL
Escherichia coli strains; E. coli NR 8, Mueller-Hinton broth
  MIC: >32 µg/mL
Escherichia coli strains; E. coli NR 96, Mueller-Hinton broth
  MIC: >32 µg/mL
Escherichia coli strains; E. coli NR 104, Mueller-Hinton broth
  MIC: >32 µg/mL
Escherichia coli strains; E. coli NR 17626, Mueller-Hinton broth
  MIC: >32 µg/mL
Escherichia coli strains; E. coli NR 17627, Mueller-Hinton broth
  MIC: >32 µg/mL
Escherichia coli strains; E. coli NR 17633, Mueller-Hinton broth
  MIC: >32 µg/mL
Escherichia coli strains; E. coli NR 17647, Mueller-Hinton broth
  MIC: >32 µg/mL
Escherichia coli strains; E. coli NR 17650, Mueller-Hinton broth
  MIC: >32 µg/mL
Escherichia coli strains; E. coli NR 17661, Mueller-Hinton broth
  MIC: >32 µg/mL
Escherichia coli strains; Escherichia coli
  MIC: > 32 µg/mL
Escherichia coli strains; Escherichia coli strain NR 6, Mueller-Hinton broth
  MIC: >32 µg/mL
Escherichia coli strains; Escherichia coli strain NR 8, Mueller-Hinton broth
  MIC: >32 µg/mL
Escherichia coli strains; Escherichia coli strain NR 96, Mueller-Hinton broth
  MIC: >32 µg/mL
Escherichia coli strains; Escherichia coli strain NR 17626, Mueller-Hinton broth
  MIC: >32 µg/mL
Escherichia coli strains; Escherichia coli strain NR 17627, Mueller-Hinton broth
  MIC: >32 µg/mL
Escherichia coli strains; Escherichia coli strain NR 17633, Mueller-Hinton broth
  MIC: >32 µg/mL
Escherichia coli strains; Escherichia coli strain NR 17647, Mueller-Hinton broth
  MIC: >32 µg/mL
Escherichia coli strains; Escherichia coli strain NR 17650, Mueller-Hinton broth
  MIC: >32 µg/mL
Escherichia coli strains; Escherichia coli strain NR 17661, Mueller-Hinton broth
  MIC: >32 µg/mL
[2]; S. aureus NR 10129
  MIC: 1 µg/mL (≈ 0.69 µM)
[2]; S. aureus NR 10186
  MIC: 1 µg/mL (≈ 0.69 µM)
[2]; S. aureus NR 10187
  MIC: 2 µg/mL (≈ 1.38 µM)
[2]; S. aureus NR 10188
  MIC: 1 µg/mL (≈ 0.69 µM)
[2]; S. aureus NR 10189
  MIC: 2 µg/mL (≈ 1.38 µM)
[2]; S. aureus NR 10191
  MIC: 1 µg/mL (≈ 0.69 µM)
[2]; S. aureus NR 10192
  MIC: 1 µg/mL (≈ 0.69 µM)
[2]; S. aureus NR 10193
  MIC: 2 µg/mL (≈ 1.38 µM)
[2]; S. aureus NR 10194
  MIC: 1 µg/mL (≈ 0.69 µM)
[2]; S. aureus NR 10198
  MIC: 2 µg/mL (≈ 1.38 µM)
[2]; Staphylococcus aureus strain NR 10129
  MIC: 1 µg/mL (≈ 0.69 µM)
[2]; Staphylococcus aureus strain NR 10186
  MIC: 1 µg/mL (≈ 0.69 µM)
[2]; Staphylococcus aureus strain NR 10187
  MIC: 2 µg/mL (≈ 1.38 µM)
[2]; Staphylococcus aureus strain NR 10188
  MIC: 1 µg/mL (≈ 0.69 µM)
[2]; Staphylococcus aureus strain NR 10189
  MIC: 2 µg/mL (≈ 1.38 µM)
[2]; Staphylococcus aureus strain NR 10191
  MIC: 1 µg/mL (≈ 0.69 µM)
[2]; Staphylococcus aureus strain NR 10192
  MIC: 1 µg/mL (≈ 0.69 µM)
[2]; Staphylococcus aureus strain NR 10193
  MIC: 2 µg/mL (≈ 1.38 µM)
[2]; Staphylococcus aureus strain NR 10194
  MIC: 1 µg/mL (≈ 0.69 µM)
[2]; Staphylococcus aureus strain NR 10198
  MIC: 2 µg/mL (≈ 1.38 µM)
Fusobacterium
  MIC: > 32 µg/mL
Fusobacterium; Fusobacterium
  MIC: > 32 µg/mL
CD strains; BAA1805, read-out: MIC alone, Test 13, CD strain BAA1805 (BI/NAP1/027)
  MIC: 0.5 µg/mL
CD strains; BAA1805, read-out: MIC alone, Test 16, CD strain BAA1805 (BI/NAP1/027)
  MIC: 0.5 µg/mL
CD strains; read-out: MIC alone, Test 1, CD strain VPI 10463
  MIC: 2 µg/mL
CD strains; read-out: MIC alone, Test 2, CD strain VPI 10463
  MIC: 2 µg/mL
CD strains; read-out: MIC alone, Test 5, CD strain NR32889
  MIC: 2 µg/mL
CD strains; read-out: MIC alone, Test 6, CD strain NR32890
  MIC: 1 µg/mL
CD strains; read-out: MIC alone, Test 7, CD strain NR32885
  MIC: 1 µg/mL
CD strains; read-out: MIC alone, Test 9, CD strain NR32885
  MIC: 1 µg/mL
CD strains; read-out: MIC alone, Test 11, CD strain NR32885
  MIC: 1 µg/mL
CD strains; read-out: MIC alone, Test 18, CD strain NR32888
  MIC: 0.5 µg/mL
CD strains; read-out: MIC alone, Test 20, CD strain NR32888
  MIC: 0.5 µg/mL
CD strains; Test 1, CD strain VPI 10463
  FIC: 0.25
  MIC combination: 0.5 µg/mL
CD strains; Test 2, CD strain VPI 10463
  FIC: 0.25
  MIC combination: 0.5 µg/mL
CD strains; Test 5, CD strain NR32889
  FIC: 1
  MIC combination: 2 µg/mL
CD strains; Test 6, CD strain NR32890
  FIC: 0.5
  MIC combination: 0.5 µg/mL
CD strains; Test 7, CD strain NR32885
  FIC: 0.5
  MIC combination: 0.5 µg/mL
CD strains; Test 9, CD strain NR32885
  FIC: 0.25
  MIC combination: 0.25 µg/mL
CD strains; Test 11, CD strain NR32885
  FIC: 0.25
  MIC combination: 0.25 µg/mL
CD strains; [4]
  FIC: 0.062
  MIC combination: 0.031 µg/mL
CD strains; [5]
  FIC: 0.25
  MIC combination: 0.125 µg/mL
CD strains; Test 18, CD strain NR32888
  FIC: 0.5
  MIC combination: 0.25 µg/mL
CD strains; Test 20, CD strain NR32888
  FIC: 0.5
  MIC combination: 0.25 µg/mL
[3]
  susceptibility of Lachnospiraceae and related organisms (in words): susceptible
[3]; Clostridiales bacterium
  MIC: 0.25 µg/mL (≈ 0.173 µM)
C. difficile VPI10463; VPI10463, Expt. 1, fecal extract (human feces 20% w/v in BHI)
  MIC: 1 µg/mL (≈ 0.69 µM)
C. difficile VPI10463; VPI10463, Expt. 1, −fecal extract
  MIC: 0.5 µg/mL (≈ 0.345 µM)
C. difficile VPI10463; VPI10463, Expt. 2, +fecal extract (human feces 20% w/v in BHI)
  MIC: 0.5 µg/mL (≈ 0.345 µM)
C. difficile VPI10463; VPI10463, Expt. 2, −fecal extract
  MIC: 0.5 µg/mL (≈ 0.345 µM)
C. perfringens MH310
  MIC: 0.25 µg/mL (≈ 0.173 µM)
C. perfringens MH310; Clostridium perfringens, MH310
  MIC: 0.5 µg/mL (≈ 0.345 µM)
Enterococci faecium; E. faecium NR 31909, Mueller-Hinton broth
  MIC: >32 µg/mL
Enterococci faecium; E. faecium NR 31912, Mueller-Hinton broth
  MIC: >32 µg/mL
Enterococci faecium; E. faecium NR 31915, Mueller-Hinton broth
  MIC: >32 µg/mL
Enterococci faecium; E. faecium NR 31916, Mueller-Hinton broth
  MIC: >32 µg/mL
Enterococci faecium; Enterococcus faecium
  MIC: > 32 µg/mL
Enterococcus faecalis; E. faecalis NR 31884
  MIC: 2 µg/mL (≈ 1.38 µM)
Enterococcus faecalis; E. faecalis NR 31885
  MIC: 2 µg/mL (≈ 1.38 µM)
Enterococcus faecalis; E. faecalis NR 31886
  MIC: 1 µg/mL (≈ 0.69 µM)
Enterococcus faecalis; E. faecalis NR 31887
  MIC: 1 µg/mL (≈ 0.69 µM)
Enterococcus faecalis; E. faecalis NR 31888
  MIC: 2 µg/mL (≈ 1.38 µM)
